Like-named read-outs stand apart in the source and are kept apart here.
What was measured:
FGFR1 = biological target: T1, FGFR1 (Homo sapiens, UniProt P11362); assay: FGFR1 kinase activity inhibition assay (LanthaScreen TR-FRET); format: biochemical
T1 construct: cytoplasmic domain [398-822 (terminal) amino acids]; purchased Carna 08-133
Experimental: PV3552) and 10 mM EDTA were added to quench the kinase reaction, and incubated at 22°C for 60 minutes. • ⑤ The reaction was measured using a PerkinElmer EnVision multimode plate reader through TR-FRET dual wavelength detection. • 1. The RFU values were copied from the Envision program. • 2. The ratio of RFU 520nm/RFU 495nm was calculated. • 3. The value of the ratio was converted to a percentage inhibition value. % Inhibition = (max-data)/(max-min) × 100 [formula] "Min" represents the ratio of the control without enzyme, "max" represents the ratio of the DMSO control, and "data" represents the ratio of the compounds in wells with different concentrations. […] "Top" refers to the maximum response, "Bottom" refers to the minimum response, and "HillSlope" refers to the slope of the curve.

FGFR3 = biological target: T2, FGFR3 (Homo sapiens, UniProt P22607); assay: FGFR3 kinase activity inhibition assay (LanthaScreen TR-FRET); format: biochemical; conditions: for Selectivity (X) FGFR1/FGFR3: ratio of IC50 FGFR1/FGFR3, selectivity towards FGFR3
T2 construct: FGFR3's cytoplasmic domain [436-806 (terminal) amino acids]; purchased Carna 08-135
Summary of the method: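 Read-out is TR-FRET, with the 520 nm/495 nm emission ratio normalised to DMSO (max) and enzyme-free (min) controls. Enzyme was the FGFR3 cytoplasmic domain, residues 436-806. EDTA (10 mM) stopped the reaction, followed by 60 min at 22 °C before reading.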

[1] = FGFR1 kinase, TR-FRET, read-out: IC50 (nM) FGFR1
[2] = FGFR3 kinase, TR-FRET, read-out: IC50 (nM) FGFR3

T2 sequence (P22607 436-806): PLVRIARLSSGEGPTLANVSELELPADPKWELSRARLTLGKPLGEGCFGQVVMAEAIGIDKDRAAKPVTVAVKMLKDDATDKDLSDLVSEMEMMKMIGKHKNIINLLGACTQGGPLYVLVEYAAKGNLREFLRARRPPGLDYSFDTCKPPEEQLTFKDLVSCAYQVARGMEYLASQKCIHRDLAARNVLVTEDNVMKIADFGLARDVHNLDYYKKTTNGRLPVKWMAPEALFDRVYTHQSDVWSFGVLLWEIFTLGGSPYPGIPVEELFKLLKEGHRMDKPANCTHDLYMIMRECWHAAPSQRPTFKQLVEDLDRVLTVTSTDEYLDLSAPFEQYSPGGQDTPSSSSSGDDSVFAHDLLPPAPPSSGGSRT
T1 sequence (P11362 398-822): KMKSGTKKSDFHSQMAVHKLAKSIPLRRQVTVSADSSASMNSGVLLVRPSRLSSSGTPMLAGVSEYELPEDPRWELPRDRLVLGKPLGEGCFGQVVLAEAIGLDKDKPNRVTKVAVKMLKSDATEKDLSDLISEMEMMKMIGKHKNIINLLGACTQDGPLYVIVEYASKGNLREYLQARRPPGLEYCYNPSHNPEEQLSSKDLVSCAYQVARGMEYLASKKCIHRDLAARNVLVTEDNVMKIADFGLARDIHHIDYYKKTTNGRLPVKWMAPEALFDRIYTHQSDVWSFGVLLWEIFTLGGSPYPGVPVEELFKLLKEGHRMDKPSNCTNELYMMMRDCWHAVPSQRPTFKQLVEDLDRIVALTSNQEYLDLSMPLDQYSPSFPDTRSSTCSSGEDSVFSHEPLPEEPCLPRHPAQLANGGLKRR

| Structure (SMILES) | IC50 (FGFR1; [1]) [nM] | IC50 (FGFR3; [2]) [nM] | Selectivity (X) FGFR1/FGFR3 (FGFR3) | IC50 (FGFR1) [nM] | IC50 (FGFR3) [nM] |
| --- | --- | --- | --- | --- | --- |
| CC(Oc1ccc2[nH]nc(-c3cnn(C)c3)c2c1)c1ccnc2ccccc12 (stereo not drawn) [Example 87, 4-(1-((3-(1-methyl-1H-pyrazol-4-yl)-1H-indazol-5-yl)oxy)ethyl)quinoline] | > 100 | 10 to 100 | B (B represents 20 ≤ multiple X<50) |  |  |
| Cc1ccc2ncccc2c1C(C)Oc1ncc2[nH]nc(-c3cnn(C)c3)c2n1 (stereo not drawn) [Example 110, 6-methyl-5-(1-((3-(1-methyl-1H-pyrazol-4-yl)-1H-pyrazino [4,3-d]pyrimidin-5-yl)oxy)ethyl)quinoline] |  |  | A (A represents 1 ≤ multiple X<20) | 10 to 100 | 1 to 10 |
| CCc1ccc2ncccc2c1C(C)Oc1ccc2[nH]nc(-c3cnn(C)c3)c2c1 (stereo not drawn) [Example 111, 6-ethyl-5-(1-((3-(1-methyl-1H-pyrazol-4-yl)-1H-indazol-5-yl)oxy)ethyl)qu inoline] | 10 to 100 | 1 to 10 | A (A represents 1 ≤ multiple X<20) |  |  |
| Cc1ccc2nccnc2c1C(C)Oc1ccc2[nH]nc(-c3cnn(C)c3)c2c1 (stereo not drawn) [Example 112] | 10 to 100 | < 1 | A (A represents 1 ≤ multiple X<20) |  |  |
| CCC(Oc1ccc2[nH]nc(-c3cnn(C)c3)c2c1)c1c(C)ccc2ncccc12 (stereo not drawn) [Example 113, 6-methyl-5-(1-((3-(1-methyl-1H-pyrazol-4-yl)-1H-indazol-5-yl)oxy)propyl)quinoline] | 10 to 100 | 1 to 10 | A (A represents 1 ≤ multiple X<20) |  |  |
| CC(Oc1ccc2[nH]nc(-c3cnn(C)c3)c2c1)c1nccc2ncccc12 (stereo not drawn) [Example 120, 5-(1-((3-(1-methyl-1H-pyrazol-4-yl)-1H-indazol-5-yl)oxy)ethyl)-1,6-naphthyridine] | > 100 | 1 to 10 | B (B represents 20 ≤ multiple X<50) |  |  |
| Cc1cnc2cccc(C(C)Oc3ccc4[nH]nc(-c5cnn(C)c5)c4c3)c2c1 (stereo not drawn) [Example 128, 3-methyl-5-(1-((3-(1-methyl-1H-pyrazol-4-yl)-1H-indazol-5-yl)oxy)ethyl)qu inoline] | > 100 | 1 to 10 | B (B represents 20 ≤ multiple X<50) |  |  |
| CC(C)c1ccc2nccnc2c1C(C)Oc1ccc2[nH]nc(-c3cnn(C)c3)c2c1 (stereo not drawn) [Example 129, 6-isopropyl-5-(1-((3-(1-methyl-1H-pyrazol-4-yl)-1H-indazol-5-yl)oxy)ethyl)quino xaline] | 1 to 10 | 1 to 10 | A (A represents 1 ≤ multiple X<20) |  |  |
| CC(Oc1ccc2[nH]nc(-c3cnn(C)c3)c2c1)c1cc(C2CC2)cc2nccnc12 (stereo not drawn) [Example 139, 7-cyclopropyl-5-(1-((3-(1-methyl-1H-pyrazol-4-yl)-1H-indazol-5-yl)oxy)ethyl)qu inoxaline] | > 100 | 1 to 10 | C (C represents 50 ≤ multiple X<100) |  |  |
| CC(Oc1ccc2[nH]nc(-c3cnn(C)c3)c2c1)c1cc(C#N)cc2nccnc12 (stereo not drawn) [Example 141, 8-(1-((3-(1-methyl-1H-pyrazol-4-yl)-1H-indazol-5-yl)oxy)ethyl)qu inoxaline-6-carbonitrile] | 10 to 100 | < 1 | B (B represents 20 ≤ multiple X<50) |  |  |
| CC(Oc1ccc2[nH]nc(-c3cnn(C)c3)c2c1)c1cc(Br)cc2nccnc12 (stereo not drawn) [Example 143, 7-bromo-5-(1-((3-(1-methyl-1H-pyrazol-4-yl)-1H-indazol-5-yl)oxy)ethyl)quinoxaline] | 10 to 100 | 1 to 10 | B (B represents 20 ≤ multiple X<50) |  |  |
| CC(C)c1cc(C(C)Oc2ccc3[nH]nc(-c4cnn(C)c4)c3c2)c2nccnc2c1 (stereo not drawn) [Example 144, 7-isopropyl-5-(1-((3-(1-methyl-1H-pyrazol-4-y1)-1H-indazol-5-yl)oxy)ethyl)quino xaline] |  |  | C (C represents 50 ≤ multiple X<100) | > 100 | < 1 |
| CC(Oc1ccc2[nH]nc(-c3cnn(C)c3)c2c1)c1cc(C(F)F)cc2nccnc12 (stereo not drawn) [Example 145, 7-(difluoromethyl)-5-(1-((3-(1-methyl-1H-pyrazol-4-yl)-1H-indazol-5-yl)oxy)ethyl)qu inoxaline] | 1 to 10 | < 1 | A (A represents 1 ≤ multiple X<20) |  |  |
| CC(Oc1ccc2[nH]nc(-c3cnn(C)c3)c2c1)c1cccc2ncc(N)cc12 (stereo not drawn) [Example 147, 5-(1-((3-(1-methyl-1H-pyrazol-4-yl)-1H-indazol-5-yl)oxy)ethyl)qu inoline-3-amine] | 10 to 100 | 1 to 10 | A (A represents 1 ≤ multiple X<20) |  |  |
| COc1cc(C(C)Oc2ccc3[nH]nc(-c4cnn(C)c4)c3c2)c2cccnc2c1 (stereo not drawn) [Example 148, 7-methoxy-5-(1-((3-(1-methyl-1H-pyrazol-4-yl)-1H-indazol-5-yl)oxy)ethyl)qu inoline] | > 100 | 1 to 10 | C (C represents 50 ≤ multiple X<100) |  |  |
| CC(Oc1ccc2[nH]nc(-c3ccc(N4CCS(=O)(=O)CC4)nc3)c2c1)c1cccc2nccnc12 (stereo not drawn) [Example 149, 4-(5-(5-(1-(quinoxalin-5-yl)ethoxy)-1H-indazol-3-yl)pyridin-2-yl)thiomorpholine1,1-dioxide] | 10 to 100 | < 1 | B (B represents 20 ≤ multiple X<50) |  |  |
| CC(Oc1ccc2[nH]nc(-c3cnn(C)c3)c2c1)c1cc(N)cc2ncccc12 (stereo not drawn) [Example 150, 5-(1-((3-(1-methyl-1H-pyrazol-4-yl)-1H-indazol-5-yl)oxy)ethyl)qu inoline-7-amine] | 1 to 10 | < 1 | A (A represents 1 ≤ multiple X<20) |  |  |
| CC(Oc1ccc2[nH]nc(-c3cnn(CCS(=O)(=O)N(C)C)c3)c2c1)c1cccc2nccnc12 (stereo not drawn) [Example 160, N,N-dimethyl-2-(4-(5-(1-(quinoxalin-5-yl)ethoxy)-1H-indazol-3-yl)-1H-pyrazol-1-yl)ethane-1-sulfonamide] | > 100 | 1 to 10 | B (B represents 20 ≤ multiple X<50) |  |  |
| Cc1ccc2nnccc2c1C(C)Oc1ccc2[nH]nc(-c3cnn(C)c3)c2c1 (stereo not drawn) [Example 168, 6-methyl-5-(1-((3-(1-methyl-1H-pyrazol-4-yl)-1H-indazol-5-yl)oxy)ethyl)cinnoline] | 10 to 100 | 1 to 10 | A (A represents 1 ≤ multiple X<20) |  |  |
| CC(Oc1ccc2[nH]nc(-c3cnn(C4CN(C(N)=O)C4)c3)c2c1)c1cc(Cl)cc2nccnc12 (stereo not drawn) [Example 169, 3-(4-(5-(1-(7-chloroquinoxalin-5-yl)ethoxy)-1H-indazol-3-yl)-1H-pyrazol-1-yl)aze tidine-1-carboxamide] | 10 to 100 | 1 to 10 | A (A represents 1 ≤ multiple X<20) |  |  |
| CC(Oc1ccc2[nH]nc(-c3cnn(C4CN(C(=O)CN)C4)c3)c2c1)c1cccc2nccnc12 (stereo not drawn) [Example 175, 2-amino-1-(3-(4-(5-(1-(quinoxalin-5-yl)ethoxy)-1H-indazol-3-yl)-1-pyrazol-1-yl)azetidin-1-yl)ethan-1-one] |  |  | A (A represents 1 ≤ multiple X<20) | 1 to 10 | < 1 |
